Assay results published in ChEMBL document CHEMBL1201862, “PubChem BioAssay data set” (2004).
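Dose response: 5 concentrations. Exposure: 48 h. Format: 96-well plates. Endpoint: linear interpolation; highest concentration if not reached. The concentration for 50% growth inhibition is given as GI50.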 Activity calls are given as the source filed them. Rule as the data show it: active = GI50 up to about 1.1 µM and inactive = higher.

Experiments:
Test in all cases: growth of human tumour cells (NCI), 48 h
A549 = tested on: A549
SW-620 = tested on: SW-620
SK-MEL-5 = tested on: SK-MEL-5
UACC-257 = tested on: UACC-257
SF-268 = tested on: SF-268
HCT-116 = tested on: HCT-116
ACHN = tested on: ACHN
M14 = tested on: M14
MOLT-4 = tested on: MOLT-4
SK-MEL-28 = tested on: SK-MEL-28
HT-29 = tested on: HT-29
CAKI-1 = tested on: CAKI-1
SF-295 = tested on: SF-295
TK-10 = tested on: TK-10
786-0 = tested on: 786-0
HCC 2998 = tested on: HCC 2998

Measured: GI50

COC(OC)[C@@H](C)[C@H](O)[C@](C)(O)C1OC(C)(C)OC(C(C)C=C(C)C)C1C (stereo partly specified)
inactive: A549 > 100 µM | SW-620 > 100 µM | SK-MEL-5 64.9 µM | UACC-257 93.1 µM | SF-268 > 100 µM | HCT-116 > 100 µM | ACHN > 100 µM | M14 > 100 µM | MOLT-4 72.4 µM | SK-MEL-28 > 100 µM | HT-29 > 100 µM | CAKI-1 > 100 µM | SF-295 > 100 µM | TK-10 > 100 µM | 786-0 > 100 µM

CC(Cn1c2c3ccccc3ccc2c2oc(=O)c3ccccc3c21)N(C)C (stereo unspecified)
inactive: A549 > 100 µM | SW-620 > 100 µM | UACC-257 > 100 µM | SF-268 > 100 µM | HCT-116 > 100 µM | ACHN > 100 µM | M14 > 100 µM | MOLT-4 > 100 µM | SK-MEL-28 > 100 µM | HT-29 > 100 µM | CAKI-1 > 100 µM | SF-295 > 100 µM | TK-10 > 100 µM | 786-0 > 100 µM

COC(=O)C(c1ccc(OC)cc1)N1C(=O)[C@@H](NC(=O)c2ccccc2)[C@H]1[C@@H](C)O (stereo partly specified)
inactive: A549 > 100 µM | SW-620 > 100 µM | SK-MEL-5 > 100 µM | UACC-257 > 100 µM | SF-268 > 100 µM | HCT-116 > 100 µM | ACHN > 100 µM | M14 > 100 µM | MOLT-4 > 100 µM | SK-MEL-28 > 100 µM | HT-29 > 100 µM | HCC 2998 > 100 µM | SF-295 > 100 µM | TK-10 > 100 µM | 786-0 > 100 µM

O=C1C(Br)=CC2(C=C1Br)CCNC1=C2C(=O)c2ccccc2C1=O
inactive: A549 22.8 µM | SW-620 9.98 µM | SK-MEL-5 11.6 µM | UACC-257 14.1 µM | SF-268 11.2 µM | HCT-116 4.13 µM | ACHN 14.1 µM | M14 18.4 µM | MOLT-4 3.75 µM | SK-MEL-28 > 10 µM | HT-29 18.7 µM | CAKI-1 21.6 µM | SF-295 16.8 µM | TK-10 33.3 µM | 786-0 11.9 µM

COc1cccc(C2c3cc4c(cc3OC(O)(CO)C2C(=O)O)OCO4)c1.COc1cccc(C2c3cc4c(cc3OC3(O)COC(=O)C23)OCO4)c1 (stereo unspecified)
inactive: A549 82.2 µM | SW-620 82.2 µM | SK-MEL-5 67.1 µM | UACC-257 41.5 µM | SF-268 40.4 µM | HCT-116 46.1 µM | ACHN 49.5 µM | M14 48.8 µM | MOLT-4 35.7 µM | SK-MEL-28 26.9 µM | HT-29 37.7 µM | HCC 2998 > 100 µM | SF-295 39.9 µM | TK-10 > 100 µM | 786-0 > 100 µM

O=C(O)C#CCO
inactive: A549 > 100 µM | SW-620 > 100 µM | SK-MEL-5 > 100 µM | UACC-257 > 100 µM | SF-268 > 100 µM | HCT-116 > 100 µM | ACHN > 100 µM | M14 > 100 µM | MOLT-4 > 100 µM | SK-MEL-28 > 100 µM | HT-29 > 100 µM | CAKI-1 > 100 µM | SF-295 > 100 µM | TK-10 > 100 µM | 786-0 > 100 µM

COc1ccc(/C=C2\CCCCC2=O)cc1
inactive: A549 > 100 µM | SW-620 > 100 µM | SK-MEL-5 > 100 µM | SF-268 > 100 µM | HCT-116 > 100 µM | ACHN > 100 µM | M14 > 100 µM | MOLT-4 > 100 µM | SK-MEL-28 > 100 µM | HT-29 > 100 µM | CAKI-1 92.5 µM | SF-295 > 100 µM | TK-10 > 100 µM | 786-0 > 100 µM

O=c1[nH]c2cc([N+](=O)[O-])ccc2nc1/C(=N/Nc1ccccc1)C(O)c1ccccc1Cl (stereo unspecified)
inactive: A549 41.9 µM | SW-620 41.9 µM | SK-MEL-5 33 µM | UACC-257 > 100 µM | SF-268 > 100 µM | HCT-116 > 100 µM | ACHN 17.5 µM | M14 47.3 µM | MOLT-4 > 100 µM | SK-MEL-28 > 100 µM | HT-29 46 µM | HCC 2998 22.3 µM | SF-295 43.3 µM | TK-10 > 100 µM | 786-0 > 100 µM

O=[N+]([O-])c1cccc(C2=NN(c3ccccc3)C3c4ccccc4OCC23)c1 (stereo unspecified)
inactive: A549 > 100 µM | SW-620 > 100 µM | UACC-257 > 100 µM | SF-268 > 100 µM | HCT-116 27.2 µM | ACHN > 100 µM | MOLT-4 > 100 µM | SK-MEL-28 > 100 µM | HT-29 > 100 µM | HCC 2998 > 100 µM | SF-295 > 100 µM | TK-10 > 100 µM | 786-0 > 100 µM

C/C(CC(=O)Nc1cc(C)ccc1C)=N/N=C(N)N
inactive: A549 > 100 µM | SW-620 > 100 µM | SK-MEL-5 > 100 µM | UACC-257 > 100 µM | SF-268 > 100 µM | HCT-116 > 100 µM | ACHN > 100 µM | M14 > 100 µM | MOLT-4 > 100 µM | SK-MEL-28 > 100 µM | HT-29 > 100 µM | HCC 2998 > 100 µM | SF-295 > 100 µM | TK-10 > 100 µM | 786-0 > 100 µM
